How the values were obtained:
[1] = Long-term/accelerated stability; assay type: physicochemical
[2] = Crystal form stability study (influencing factor experiments); assay type: physicochemical; conditions: for Physical and chemical properties (conclusion of influencing factor experiments): high temperatures and high humidities for 30 days
Experimental: Samples of the crystal forms A, B, C, I, J, and K of the compound represented by formula (I) were taken, spread in open containers, and left to stand under conditions of light exposure (4500 Lux), high temperatures (40° C. and 60° C.), and high humidities (RH 75% and RH 92.5%) for 30 days to investigate their stability, and the results are shown in Table 16.

[3] = 40° C., 10 days, open container
[4] = 40° C., 30 days, open container
[5] = 60° C., 10 days, open container
[6] = 60° C., 30 days, open container
[7] = 75% RH, 10 days, open container
[8] = 75% RH, 30 days, open container
[9] = 92.5% RH, 5 days, open container
[10] = 92.5% RH, 10 days, open container
[11] = 92.5% RH, 30 days, open container
[12] = light exposure (4500 Lux), 5 days, open container
[13] = light exposure (4500 Lux), 10 days, open container
[14] = light exposure (4500 Lux), 30 days, open container

With `CCc1c(F)ccc2cc(O)cc(-c3nc4c5c(nc(OC[C@@]67CCCN6C[C@H](F)C7)nc5c3F)N3C[C@H]5CC[C@H](N5)[C@H]3CO4)c12` [Crystal form A, 5-Ethyl-6-fluoro-4-((5aS,6S,9R)-1-fluoro-12-(((2R,7aS)-2-fluorotetrahydro-1H-pyrrolizin-7a(5H)-yl)methoxy)-5a,6,7,8,9,10-hexahydro-5H-4-oxa-3,10a,11,13,14-pentaaza-6,9-methanonaphtho[1,8-ab]heptalen-2-yl)naphthalen-2-ol] the “Purity % 1 month” value ([1]; 25° C./60% RH) was 99.3%, the “Purity % 3 months” value ([1]; 25° C./60% RH) was 99.3% and the “Purity % 6 months” value ([1]; 25° C./60% RH) was 99.3%. For the same molecule, the “Purity % Initial” value ([1]; 25° C./60% RH) was 99.3%, the “Purity % 1 month” value ([1]; 40° C./75% RH) was 99.3% and the “Purity % 3 months” value ([1]; 40° C./75% RH) was 99.2%. For the same molecule, the “Purity % 6 months” value ([1]; 40° C./75% RH) was 99.1%, the “Purity % Initial” value ([1]; 40° C./75% RH) was 99.3% and the Color and state ([2]; 40° C., 5 days, open container) was “Off-white solid”. The Crystal form ([2]; 40° C., 5 days, open container) was “Did not change”, the Purity % ([2]; 40° C., 5 days, open container) was 99.2% and the Color and state [2, 3] was “Off-white solid”. The Crystal form [2, 3] was “Did not change”, the Purity % [2, 3] was 99.2% and the Color and state [2, 4] was “Off-white solid”. For the same molecule, the Crystal form [2, 4] was “Did not change”, the Purity % [2, 4] was 99.1% and the Color and state ([2]; 60° C., 5 days, open container) was “Off-white solid”. For the same molecule, the Crystal form ([2]; 60° C., 5 days, open container) was “Did not change”, the Purity % ([2]; 60° C., 5 days, open container) was 99.1% and the Color and state [2, 5] was “Off-white solid”. For the same molecule, the Crystal form [2, 5] was “Did not change”, the Purity % [2, 5] was 99.0% and the Color and state [2, 6] was “Off-white solid”. The Crystal form [2, 6] was “Did not change”, the Purity % [2, 6] was 98.5% and the Color and state ([2]; 75% RH, 5 days, open container) was “Off-white solid”. For the same molecule, the Crystal form ([2]; 75% RH, 5 days, open container) was “Did not change”, the Purity % ([2]; 75% RH, 5 days, open container) was 99.3% and the Color and state [2, 7] was “Off-white solid”. For the same molecule, the Crystal form [2, 7] was “Did not change”, the Purity % [2, 7] was 99.3% and the Color and state [2, 8] was “Off-white solid”. The Crystal form [2, 8] was “Did not change”, the Purity % [2, 8] was 99.3% and the Color and state [2, 9] was “Off-white solid”. The Crystal form [2, 9] was “Did not change”, the Purity % [2, 9] was 99.3% and the Color and state [2, 10] was “Off-white solid”. The Crystal form [2, 10] was “Did not change”, the Purity % [2, 10] was 99.4% and the Color and state [2, 11] was “Off-white solid”. For the same molecule, the Crystal form [2, 11] was “Did not change”, the Purity % [2, 11] was 99.3% and the Color and state ([2]; Initial, 0 days) was “Off-white solid”. The Purity % ([2]; Initial, 0 days) was 99.3%, the “Physical and chemical properties (conclusion of influencing factor experiments)” value (shortened to “Physical and chemical properties”) [2] was “good physical and chemical properties” and the Color and state [2, 12] was “Off-white solid”. For the same molecule, the Crystal form [2, 12] was “Did not change”, the Purity % [2, 12] was 98.7% and the Color and state [2, 13] was “Off-white solid”. For the same molecule, the Crystal form [2, 13] was “Did not change”, the Purity % [2, 13] was 98.5% and the Color and state [2, 14] was “Pale yellow solid”. For the same molecule, the Crystal form [2, 14] was “Did not change” and the Purity % [2, 14] was 95.8%.
In the case of `CCc1c(F)ccc2cc(O)cc(-c3nc4c5c(nc(OC[C@@]67CCCN6C[C@H](F)C7)nc5c3F)N3C[C@H]5CC[C@H](N5)[C@H]3CO4)c12` [Crystal form B, 5-Ethyl-6-fluoro-4-((5aS,6S,9R)-1-fluoro-12-(((2R,7aS)-2-fluorotetrahydro-1H-pyrrolizin-7a(5H)-yl)methoxy)-5a,6,7,8,9,10-hexahydro-5H-4-oxa-3,10a,11,13,14-pentaaza-6,9-methanonaphtho[1,8-ab]heptalen-2-yl)naphthalen-2-ol], the “Purity % 1 month” value ([1]; 25° C./60% RH) is reported as 99.4%, the “Purity % 3 months” value ([1]; 25° C./60% RH) is reported as 99.3% and the “Purity % 6 months” value ([1]; 25° C./60% RH) is reported as 99.3%. For the same molecule, the “Purity % Initial” value ([1]; 25° C./60% RH) was 99.4%, the “Purity % 1 month” value ([1]; 40° C./75% RH) was 99.3% and the “Purity % 3 months” value ([1]; 40° C./75% RH) was 99.2%. For the same molecule, the “Purity % 6 months” value ([1]; 40° C./75% RH) was 99.1%, the “Purity % Initial” value ([1]; 40° C./75% RH) was 99.4% and the Color and state ([2]; 40° C., 5 days, open container) was “Off-white solid”. For the same molecule, the Crystal form ([2]; 40° C., 5 days, open container) was “Did not change”, the Purity % ([2]; 40° C., 5 days, open container) was 99.3% and the Color and state [2, 3] was “Off-white solid”. For the same molecule, the Crystal form [2, 3] was “Did not change”, the Purity % [2, 3] was 99.3% and the Color and state [2, 4] was “Off-white solid”. For the same molecule, the Crystal form [2, 4] was “Did not change”, the Purity % [2, 4] was 99.2% and the Color and state ([2]; 60° C., 5 days, open container) was “Off-white solid”. For the same molecule, the Crystal form ([2]; 60° C., 5 days, open container) was “Did not change”, the Purity % ([2]; 60° C., 5 days, open container) was 99.3% and the Color and state [2, 5] was “Off-white solid”. For the same molecule, the Crystal form [2, 5] was “Did not change”, the Purity % [2, 5] was 99.2% and the Color and state [2, 6] was “Off-white solid”. The Crystal form [2, 6] was “Did not change”, the Purity % [2, 6] was 99.1% and the Color and state ([2]; 75% RH, 5 days, open container) was “Off-white solid”. For the same molecule, the Crystal form ([2]; 75% RH, 5 days, open container) was “Did not change”, the Purity % ([2]; 75% RH, 5 days, open container) was 99.3% and the Color and state [2, 7] was “Off-white solid”. For the same molecule, the Crystal form [2, 7] was “Did not change”, the Purity % [2, 7] was 99.4% and the Color and state [2, 8] was “Off-white solid”. For the same molecule, the Crystal form [2, 8] was “Did not change”, the Purity % [2, 8] was 99.3% and the Color and state [2, 9] was “Off-white solid”. For the same molecule, the Crystal form [2, 9] was “Did not change”, the Purity % [2, 9] was 99.4% and the Color and state [2, 10] was “Off-white solid”. For the same molecule, the Crystal form [2, 10] was “Did not change”, the Purity % [2, 10] was 99.4% and the Color and state [2, 11] was “Off-white solid”. The Crystal form [2, 11] was “Did not change”, the Purity % [2, 11] was 99.4% and the Color and state ([2]; Initial, 0 days) was “Off-white solid”. For the same molecule, the Purity % ([2]; Initial, 0 days) was 99.4%, the “Physical and chemical properties” value [2] was “good physical and chemical properties” and the Color and state [2, 12] was “Off-white solid”. For the same molecule, the Crystal form [2, 12] was “Did not change”, the Purity % [2, 12] was 99.0% and the Color and state [2, 13] was “Off-white solid”. For the same molecule, the Crystal form [2, 13] was “Did not change”, the Purity % [2, 13] was 99.1% and the Color and state [2, 14] was “Pale yellow solid”. The Crystal form [2, 14] was “Did not change” and the Purity % [2, 14] was 97.6%.
With `CCc1c(F)ccc2cc(O)cc(-c3nc4c5c(nc(OC[C@@]67CCCN6C[C@H](F)C7)nc5c3F)N3C[C@H]5CC[C@H](N5)[C@H]3CO4)c12` [Crystal form K, 5-Ethyl-6-fluoro-4-((5aS,6S,9R)-1-fluoro-12-(((2R,7aS)-2-fluorotetrahydro-1H-pyrrolizin-7a(5H)-yl)methoxy)-5a,6,7,8,9,10-hexahydro-5H-4-oxa-3,10a,11,13,14-pentaaza-6,9-methanonaphtho[1,8-ab]heptalen-2-yl)naphthalen-2-ol] the “Purity % 1 month” value ([1]; 25° C./60% RH) was 99.7%, the “Purity % 2 months” value ([1]; 25° C./60% RH) was 99.8% and the “Purity % 6 months” value ([1]; 25° C./60% RH) was 99.7%. The “Purity % Initial” value ([1]; 25° C./60% RH) was 99.8%, the “Purity % 1 month” value ([1]; 40° C./75% RH) was 99.7% and the “Purity % 2 months” value ([1]; 40° C./75% RH) was 99.7%. The “Purity % 6 months” value ([1]; 40° C./75% RH) was 99.4%, the “Purity % Initial” value ([1]; 40° C./75% RH) was 99.8% and the Color and state ([2]; 40° C., 5 days, open container) was “Off-white solid”. For the same molecule, the Crystal form ([2]; 40° C., 5 days, open container) was “Did not change”, the Purity % ([2]; 40° C., 5 days, open container) was 99.2% and the Color and state [2, 3] was “Off-white solid”. For the same molecule, the Crystal form [2, 3] was “Did not change”, the Purity % [2, 3] was 98.5% and the Color and state [2, 4] was “Off-white solid”. The Crystal form [2, 4] was “Did not change”, the Purity % [2, 4] was 97.0% and the Color and state ([2]; 60° C., 5 days, open container) was “Off-white solid”. The Crystal form ([2]; 60° C., 5 days, open container) was “Did not change”, the Purity % ([2]; 60° C., 5 days, open container) was 99.1% and the Color and state [2, 5] was “Off-white solid”. For the same molecule, the Crystal form [2, 5] was “Did not change”, the Purity % [2, 5] was 98.5% and the Color and state [2, 6] was “Off-white solid”. The Crystal form [2, 6] was “Did not change”, the Purity % [2, 6] was 97.0% and the Color and state ([2]; 75% RH, 5 days, open container) was “Off-white solid”. The Crystal form ([2]; 75% RH, 5 days, open container) was “Did not change”, the Purity % ([2]; 75% RH, 5 days, open container) was 99.8% and the Color and state [2, 7] was “Off-white solid”. For the same molecule, the Crystal form [2, 7] was “Did not change”, the Purity % [2, 7] was 99.7% and the Color and state [2, 8] was “Off-white solid”. For the same molecule, the Crystal form [2, 8] was “Did not change”, the Purity % [2, 8] was 99.7% and the Color and state [2, 9] was “Off-white solid”. For the same molecule, the Crystal form [2, 9] was “Did not change”, the Purity % [2, 9] was 99.8% and the Color and state [2, 10] was “Off-white solid”. For the same molecule, the Crystal form [2, 10] was “Did not change”, the Purity % [2, 10] was 99.7% and the Color and state [2, 11] was “Off-white solid”. The Crystal form [2, 11] was “Did not change”, the Purity % [2, 11] was 99.7% and the Color and state ([2]; Initial, 0 days) was “Off-white solid”. For the same molecule, the Crystal form ([2]; Initial, 0 days) was “Crystal form K”, the Purity % ([2]; Initial, 0 days) was 99.8% and the “Physical and chemical properties” value [2] was “good physical and chemical properties”. The Color and state [2, 12] was “Off-white solid”, the Crystal form [2, 12] was “Did not change” and the Purity % [2, 12] was 99.3%. The Color and state [2, 13] was “Off-white solid”, the Crystal form [2, 13] was “Did not change” and the Purity % [2, 13] was 98.9%. For the same molecule, the Color and state [2, 14] was “Off-white solid”, the Crystal form [2, 14] was “Did not change” and the Purity % [2, 14] was 97.9%.
